Patent publication US20240393292A1, “ALLERGY ANTIGEN AND EPITOPE THEREOF” (HOYU CO., LTD., priority 2019, published 2024)
Blank lines part the entries; values can stand above or below the substance they belong to.

System: IgE antibodies from patients
Experiment: Wheat epitope mapping (2): overlapping 10-amino-acid peptide fragments shifted by one amino acid;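 note: key = sequence deemed particularly important within the common 15-residue sequence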
Format: binding, human
Details: sequence without X
Outline: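 Cellulose-bound 10-mer peptides offset by one residue were probed with patient serum IgE and detected by chemiluminescence. Secondary-antibody-only signals were subtracted per peptide. Residual binding was expressed as % of the parent overlapping peptide, scored as none (<30%), poor (30–<50%), somewhat poor (50–<70%) or retained (≥70%).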

[1] = serum of patient G6 (adult, general immediate type allergy to wheat)
[2] = serum of patient G7 (adult, general immediate type allergy to wheat)
[3] = serum of patient G9 (adult, general immediate type allergy to wheat)

Rank of partial sequence as epitope binding to IgE antibody (serum of patient P21 (WDEIA)): Preferably
Substance: 1446 (PQQPISQQQ; REGION 1..9: note = epitope) [compound 1446]

Rank of partial sequence as epitope binding to IgE antibody (serum of patient P22 (WDEIA)): More preferably
Substance: 1454 (QQPISQQQAQ; REGION 1..10: note = epitope) [compound 1454]

Rank of partial sequence as epitope binding to IgE antibody (serum of patient P26 (WDEIA)): Preferably
Substance: 1467 (YLQPQQPIS; REGION 1..9: note = epitope) [compound 1467]

Rank of partial sequence as epitope binding to IgE antibody (serum of patient P34 (WDEIA)): Preferably
Substance: 1483 (YLQPQQPIS; REGION 1..9: note = epitope) [compound 1483]

Rank of partial sequence as epitope binding to IgE antibody (serum of patient P34 (WDEIA)): Key
Substance: 1485 (SQQQA; REGION 1..5: note = epitope) [compound 1485]

Rank of partial sequence as epitope binding to IgE antibody (serum of patient P35 (WDEIA)): Preferably
Substance: 1489 (QQPISQQQAQ; REGION 1..10: note = epitope) [compound 1489]

Rank of partial sequence as epitope binding to IgE antibody (serum of patient P36 (WDEIA)): Preferably
Substance: 1492 (YLQPQQPISQ; REGION 1..10: note = epitope) [compound 1492]

Rank of partial sequence as epitope binding to IgE antibody (serum of patient P36 (WDEIA)): Key
Substance: 1493 (YLQPQQPIS; REGION 1..9: note = epitope) [compound 1493]

Rank of partial sequence as epitope binding to IgE antibody [3]: Preferably
Substance: 1506 (YLQPQQP; REGION 1..7: note = epitope) [compound 1506]

Rank of partial sequence as epitope binding to IgE antibody [3]: Key
Substance: 1507 (YLQPQ; REGION 1..5: note = epitope) [compound 1507]

Rank of partial sequence as epitope binding to IgE antibody (serum of patient P4 (WDEIA)): Preferably
Substance: 1514 (QVPLVQQQQ; REGION 1..9: note = epitope) [compound 1514]

Rank of partial sequence as epitope binding to IgE antibody (serum of patient P7 (WDEIA)): Preferably
Substance: 1518 (QVPLVQQ; REGION 1..7: note = epitope) [compound 1518]

Rank of partial sequence as epitope binding to IgE antibody (serum of patient P10 (WDEIA)): More preferably
Substance: 1524 (QVPLVQQQQ; REGION 1..9: note = epitope) [compound 1524]

Rank of partial sequence as epitope binding to IgE antibody (serum of patient P12 (WDEIA)): More preferably
Substance: 1527 (QVPLVQQQQ; REGION 1..9: note = epitope) [compound 1527]

Rank of partial sequence as epitope binding to IgE antibody (serum of patient P14 (WDEIA)): Preferably
Substance: 1532 (QVPLVQQQ; REGION 1..8: note = epitope) [compound 1532]

Rank of partial sequence as epitope binding to IgE antibody (serum of patient P17 (WDEIA)): Further preferably
Substance: 1538 (LVQQQQFLGQ; REGION 1..10: note = epitope) [compound 1538]

More lines, now with the values behind:

Substance: 1445 (YLQPQ; REGION 1..5: note = epitope) [compound 1445]
Rank of partial sequence as epitope binding to IgE antibody (serum of patient P21 (WDEIA)): Key

Substance: 1447 (QQPISQQQ; REGION 1..8: note = epitope) [compound 1447]
Rank of partial sequence as epitope binding to IgE antibody (serum of patient P21 (WDEIA)): Key

Substance: 1450 (YLQPQQPISQ; REGION 1..10: note = epitope) [compound 1450]
Rank of partial sequence as epitope binding to IgE antibody (serum of patient P22 (WDEIA)): Further preferably

Substance: 1451 (LQPQQPISQ; REGION 1..9: note = epitope) [compound 1451]
Rank of partial sequence as epitope binding to IgE antibody (serum of patient P22 (WDEIA)): More preferably

Substance: 1459 (YLQPQQPISQ; REGION 1..10: note = epitope) [compound 1459]
Rank of partial sequence as epitope binding to IgE antibody (serum of patient P24 (WDEIA)): Further preferably

Substance: 1460 (LQPQQPISQ; REGION 1..9: note = epitope) [compound 1460]
Rank of partial sequence as epitope binding to IgE antibody (serum of patient P24 (WDEIA)): More preferably

Substance: 1463 (QQPISQQQAQ; REGION 1..10: note = epitope) [compound 1463]
Rank of partial sequence as epitope binding to IgE antibody (serum of patient P24 (WDEIA)): Further preferably

Substance: 1464 (QQPISQQQA; REGION 1..9: note = epitope) [compound 1464]
Rank of partial sequence as epitope binding to IgE antibody (serum of patient P24 (WDEIA)): More preferably

Substance: 1468 (YLQPQQP; REGION 1..7: note = epitope) [compound 1468]
Rank of partial sequence as epitope binding to IgE antibody (serum of patient P26 (WDEIA)): Key

Substance: 1472 (YLQPQQPIS; REGION 1..9: note = epitope) [compound 1472]
Rank of partial sequence as epitope binding to IgE antibody (serum of patient P27 (WDEIA)): Preferably

Substance: 1474 (LQPQQPIS; REGION 1..8: note = epitope) [compound 1474]
Rank of partial sequence as epitope binding to IgE antibody (serum of patient P27 (WDEIA)): Preferably

Substance: 1477 (YLQPQQPISQ; REGION 1..10: note = epitope) [compound 1477]
Rank of partial sequence as epitope binding to IgE antibody (serum of patient P32 (WDEIA)): Preferably

Substance: 1478 (YLQPQQPIS; REGION 1..9: note = epitope) [compound 1478]
Rank of partial sequence as epitope binding to IgE antibody (serum of patient P32 (WDEIA)): Key

Substance: 1479 (YLQPQQPISQ; REGION 1..10: note = epitope) [compound 1479]
Rank of partial sequence as epitope binding to IgE antibody (serum of patient P33 (WDEIA)): Preferably

Substance: 1480 (YLQPQQPIS; REGION 1..9: note = epitope) [compound 1480]
Rank of partial sequence as epitope binding to IgE antibody (serum of patient P33 (WDEIA)): Key

Substance: 1482 (YLQPQQPISQ; REGION 1..10: note = epitope) [compound 1482]
Rank of partial sequence as epitope binding to IgE antibody (serum of patient P34 (WDEIA)): More preferably

Substance: 1484 (YLQPQQP; REGION 1..7: note = epitope) [compound 1484]
Rank of partial sequence as epitope binding to IgE antibody (serum of patient P34 (WDEIA)): Key

Substance: 1487 (YLQPQQPISQ; REGION 1..10: note = epitope) [compound 1487]
Rank of partial sequence as epitope binding to IgE antibody (serum of patient P35 (WDEIA)): Preferably

Substance: 1488 (YLQPQQPIS; REGION 1..9: note = epitope) [compound 1488]
Rank of partial sequence as epitope binding to IgE antibody (serum of patient P35 (WDEIA)): Key

Substance: 1494 (YLQPQQPISQ; REGION 1..10: note = epitope) [compound 1494]
Rank of partial sequence as epitope binding to IgE antibody [1]: Preferably

Substance: 1495 (YLQPQQPI; REGION 1..8: note = epitope) [compound 1495]
Rank of partial sequence as epitope binding to IgE antibody [1]: Key

Substance: 1499 (YLQPQQPISQ; REGION 1..10: note = epitope) [compound 1499]
Rank of partial sequence as epitope binding to IgE antibody [2]: More preferably

Substance: 1500 (YLQPQQPIS; REGION 1..9: note = epitope) [compound 1500]
Rank of partial sequence as epitope binding to IgE antibody [2]: Preferably

Substance: 1502 (LQPQQP; REGION 1..6: note = epitope) [compound 1502]
Rank of partial sequence as epitope binding to IgE antibody [2]: Key

Substance: 1503 (QPISQQQA; REGION 1..8: note = epitope) [compound 1503]
Rank of partial sequence as epitope binding to IgE antibody [2]: Preferably

Substance: 1505 (SQQQA; REGION 1..5: note = epitope) [compound 1505]
Rank of partial sequence as epitope binding to IgE antibody [2]: Key

Substance: 1509 (QVPLVQQ; REGION 1..7: note = epitope) [compound 1509]
Rank of partial sequence as epitope binding to IgE antibody (serum of patient P3 (WDEIA)): Preferably

Substance: 1520 (QVPLVQQ; REGION 1..7: note = epitope) [compound 1520]
Rank of partial sequence as epitope binding to IgE antibody (serum of patient P8 (WDEIA)): Preferably

Substance: 1523 (QVPLVQQQQF; REGION 1..10: note = epitope) [compound 1523]
Rank of partial sequence as epitope binding to IgE antibody (serum of patient P10 (WDEIA)): Further preferably

Substance: 1525 (LVQQQQFLG; REGION 1..9: note = epitope) [compound 1525]
Rank of partial sequence as epitope binding to IgE antibody (serum of patient P10 (WDEIA)): Preferably

Substance: 1526 (VQQQ; REGION 1..4: note = epitope) [compound 1526]
Rank of partial sequence as epitope binding to IgE antibody (serum of patient P10 (WDEIA)): Key

Substance: 1528 (QVPLVQQ; REGION 1..7: note = epitope) [compound 1528]
Rank of partial sequence as epitope binding to IgE antibody (serum of patient P12 (WDEIA)): Preferably

Substance: 1534 (QQQQFLG; REGION 1..7: note = epitope) [compound 1534]
Rank of partial sequence as epitope binding to IgE antibody (serum of patient P14 (WDEIA)): Preferably

Substance: 1539 (LVQQQQFLG; REGION 1..9: note = epitope) [compound 1539]
Rank of partial sequence as epitope binding to IgE antibody (serum of patient P17 (WDEIA)): More preferably
